Measurements from PubChem BioAssay AID1963422 (Molecular Pharmacology Branch, DTP, NCI, 2024).

System: 463943-066-T-J2-PDC complex spheroid growth
Experiment: Anticancer human tumor 463943-066-T-J2-PDC patient-derived colon adenocarcinoma cell line growth inhibition [Asc]
Conditions: for IC50: curve of first compound; for viability, T/C: stronger effect = lower value; active = viability on the fitted dose curve at most 10% of control; inactive = the rest
Outline: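 Stromal components (HUVEC and hMSC) are co-assembled with the cancer cells into multicellular spheroids. Drugs are then added singly or paired, at concentrations falling by half-log increments from a clinically achievable maximum, capped at 10 microM without known Cmax.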

[1] = second compound 0.0316 µM, first compound 0.00316 µM
[2] = second compound 0.0316 µM, first compound 0.01 µM
[3] = second compound 0.0316 µM, first compound 0.0316 µM
[4] = second compound 0.0316 µM, first compound 0.1 µM
[5] = second compound 0.1 µM, first compound 0.00316 µM
[6] = second compound 0.1 µM, first compound 0.01 µM
[7] = second compound 0.1 µM, first compound 0.0316 µM
[8] = second compound 0.1 µM, first compound 0.1 µM
[9] = second compound 0.316 µM, first compound 0.00316 µM
[10] = second compound 0.316 µM, first compound 0.01 µM
[11] = second compound 0.316 µM, first compound 0.0316 µM
[12] = second compound 0.316 µM, first compound 0.1 µM
[13] = second compound 1 µM, first compound 0.00316 µM
[14] = second compound 1 µM, first compound 0.01 µM
[15] = second compound 1 µM, first compound 0.0316 µM
[16] = second compound 1 µM, first compound 0.1 µM
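Also: compound exposure lasted 7 days.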
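For viability, T/C in this document: 100% = DMSO vehicle control wells.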

NC1CCC(NC2CC2c2ccccc2)CC1 (centres undefined) + Cc1c(S(C)(=O)=O)c(-c2cc(F)cc(N3CCN(c4ccc(NS(=O)(=O)c5ccc(NC(CCN6CCC(C(=O)OCCCP(=O)(O)O)CC6)CSc6ccccc6)c(S(=O)(=O)C(F)(F)F)c5)cc4)CC3)c2)c(-c2ccc(Cl)cc2)n1C(C)C
inactive: viability, T/C (second compound 0.0316 µM, first compound 0.000316 µM) 88% | viability, T/C (second compound 0.0316 µM, first compound 0.001 µM) 82.3% | viability, T/C [1] 81.4% | viability, T/C [2] 84.3% | viability, T/C [3] 88.5% | viability, T/C [4] 80.5% | viability, T/C (second compound 0.1 µM, first compound 0.000316 µM) 94.4% | viability, T/C (second compound 0.1 µM, first compound 0.001 µM) 85.5% | viability, T/C [5] 95.6% | viability, T/C [6] 82.7% | viability, T/C [7] 87.7% | viability, T/C [8] 76.9% | viability, T/C (second compound 0.316 µM, first compound 0.000316 µM) 88.1% | viability, T/C (second compound 0.316 µM, first compound 0.001 µM) 81.7% | viability, T/C [9] 77.9% | viability, T/C [10] 85% | viability, T/C [11] 80% | viability, T/C [12] 80.2% | viability, T/C (second compound 1 µM, first compound 0.000316 µM) 75.3% | viability, T/C (second compound 1 µM, first compound 0.001 µM) 72.5% | viability, T/C [13] 73.8% | viability, T/C [14] 71.9% | viability, T/C [15] 71.9% | viability, T/C [16] 68.4% | viability, T/C (second compound 3.16 µM, first compound 0.000316 µM) 59.3% | viability, T/C (second compound 3.16 µM, first compound 0.001 µM) 58.6% | viability, T/C (second compound 3.16 µM, first compound 0.00316 µM) 59.3% | viability, T/C (second compound 3.16 µM, first compound 0.01 µM) 58.6% | viability, T/C (second compound 3.16 µM, first compound 0.0316 µM) 60.1% | viability, T/C (second compound 3.16 µM, first compound 0.1 µM) 56.1% | viability, T/C (second compound 10 µM, first compound 0.000316 µM) 45.1% | viability, T/C (second compound 10 µM, first compound 0.001 µM) 48.8% | viability, T/C (second compound 10 µM, first compound 0.00316 µM) 51.6% | viability, T/C (second compound 10 µM, first compound 0.01 µM) 49.1% | viability, T/C (second compound 10 µM, first compound 0.0316 µM) 52.3% | viability, T/C (second compound 10 µM, first compound 0.1 µM) 52.6%
< 0.316 nM: IC50 (second compound 10 µM)
> 100 nM: IC50 (second compound 0.0316 µM) | IC50 (second compound 0.1 µM) | IC50 (second compound 0.316 µM) | IC50 (second compound 1 µM) | IC50 (second compound 3.16 µM)

O=C(c1ccc(F)c(F)c1Nc1ccc(I)cc1F)N1CC(O)([C@@H]2CCCCN2)C1 + CNC(C)C(=O)NC1CN(S(=O)(=O)c2cccc(S(=O)(=O)N3CCC4CCC(C(=O)NC(c5ccccc5)c5ccccc5)N4C(=O)C(NC(=O)C(C)NC)C3)c2)CCC2CCC(C(=O)NC(c3ccccc3)c3ccccc3)N2C1=O
238 nM: IC50 (second compound 1 µM)
229 nM: IC50 (second compound 0.316 µM)
125 nM: IC50 (second compound 0.00316 µM)
343 nM: IC50 (second compound 0.01 µM)
173 nM: IC50 (second compound 0.1 µM)
304 nM: IC50 (second compound 0.0316 µM)
inactive: viability, T/C (second compound 0.00316 µM, first compound 0.00316 µM) 88.3% | viability, T/C (second compound 0.00316 µM, first compound 0.01 µM) 76.9% | viability, T/C (second compound 0.00316 µM, first compound 0.0316 µM) 59.4% | viability, T/C (second compound 0.00316 µM, first compound 0.1 µM) 58.4% | viability, T/C (second compound 0.00316 µM, first compound 0.316 µM) 40.4% | viability, T/C (second compound 0.00316 µM, first compound 1 µM) 20.8% | viability, T/C (second compound 0.01 µM, first compound 0.00316 µM) 94.6% | viability, T/C (second compound 0.01 µM, first compound 0.01 µM) 88.3% | viability, T/C (second compound 0.01 µM, first compound 0.0316 µM) 71.8% | viability, T/C (second compound 0.01 µM, first compound 0.1 µM) 65.9% | viability, T/C (second compound 0.01 µM, first compound 0.316 µM) 51.3% | viability, T/C (second compound 0.01 µM, first compound 1 µM) 36.9% | viability, T/C [1] 102% | viability, T/C [2] 81.6% | viability, T/C [3] 69% | viability, T/C [4] 67.2% | viability, T/C (second compound 0.0316 µM, first compound 0.316 µM) 55% | viability, T/C (second compound 0.0316 µM, first compound 1 µM) 32.6% | viability, T/C [5] 85.1% | viability, T/C [6] 82.9% | viability, T/C [7] 64.4% | viability, T/C [8] 56% | viability, T/C (second compound 0.1 µM, first compound 0.316 µM) 46.8% | viability, T/C (second compound 0.1 µM, first compound 1 µM) 24.7% | viability, T/C [9] 91.1% | viability, T/C [10] 79.2% | viability, T/C [11] 66.5% | viability, T/C [12] 60% | viability, T/C (second compound 0.316 µM, first compound 0.316 µM) 49.9% | viability, T/C (second compound 0.316 µM, first compound 1 µM) 31.8% | viability, T/C [13] 82% | viability, T/C [14] 68.1% | viability, T/C [15] 66.3% | viability, T/C [16] 61.4% | viability, T/C (second compound 1 µM, first compound 0.316 µM) 47.4% | viability, T/C (second compound 1 µM, first compound 1 µM) 33.4%
